One experiment addresses D(2) dopamine receptor (Homo sapiens, UniProt P14416). In words: Binding affinity for human recombinant dopamine receptor D2L.
Another experiment deals with D(1B) dopamine receptor (Homo sapiens, UniProt P21918). Kind of experiment: Binding affinity for human recombinant dopamine receptor D5.
For the next experiment, the target named is T1, D(4) dopamine receptor (Homo sapiens, UniProt P21917).
T1 sequence (P21917 whole entry): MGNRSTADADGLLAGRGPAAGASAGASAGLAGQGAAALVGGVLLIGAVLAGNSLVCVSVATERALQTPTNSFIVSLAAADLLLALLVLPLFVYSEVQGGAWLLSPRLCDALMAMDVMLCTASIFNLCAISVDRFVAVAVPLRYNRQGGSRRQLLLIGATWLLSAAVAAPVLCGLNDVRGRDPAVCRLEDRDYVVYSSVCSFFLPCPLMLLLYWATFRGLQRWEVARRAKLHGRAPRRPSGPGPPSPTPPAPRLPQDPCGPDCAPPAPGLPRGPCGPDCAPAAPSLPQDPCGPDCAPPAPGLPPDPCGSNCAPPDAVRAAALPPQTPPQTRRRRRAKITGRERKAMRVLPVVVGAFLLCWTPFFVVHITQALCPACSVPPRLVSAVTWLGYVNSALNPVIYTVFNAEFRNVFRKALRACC
In words: Binding affinity for human recombinant dopamine receptor D4.4.

Another experiment has as its target D(1A) dopamine receptor (Homo sapiens, UniProt P21728).
A further experiment has as its target D(3) dopamine receptor (Homo sapiens, UniProt P35462).

These results are taken from ChEMBL document CHEMBL1138672, “Dopamine/serotonin receptor ligands. 9. Oxygen-containing midsized heterocyclic ring systems and nonrigidized analogues. A step toward dopamine D5 receptor selectivity” (J Med Chem, 2004).

Molecules are shown by their SMILES.

Usually Ki stands for the dissociation constant of the complex between target and ligand, obtained from inhibition or displacement.

Chain of D(1A) dopamine receptor (P21728 whole entry): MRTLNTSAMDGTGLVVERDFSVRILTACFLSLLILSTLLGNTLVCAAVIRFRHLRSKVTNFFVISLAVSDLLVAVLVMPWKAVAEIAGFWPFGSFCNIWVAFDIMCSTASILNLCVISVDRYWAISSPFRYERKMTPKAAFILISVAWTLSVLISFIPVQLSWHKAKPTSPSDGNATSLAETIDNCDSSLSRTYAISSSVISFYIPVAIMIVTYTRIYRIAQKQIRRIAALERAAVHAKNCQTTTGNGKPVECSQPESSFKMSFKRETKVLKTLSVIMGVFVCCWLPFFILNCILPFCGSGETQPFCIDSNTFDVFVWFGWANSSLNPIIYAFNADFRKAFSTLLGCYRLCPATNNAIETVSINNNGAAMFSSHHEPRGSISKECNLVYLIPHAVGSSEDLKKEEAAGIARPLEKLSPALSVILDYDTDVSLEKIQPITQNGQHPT
Chain of D(2) dopamine receptor (P14416 whole entry): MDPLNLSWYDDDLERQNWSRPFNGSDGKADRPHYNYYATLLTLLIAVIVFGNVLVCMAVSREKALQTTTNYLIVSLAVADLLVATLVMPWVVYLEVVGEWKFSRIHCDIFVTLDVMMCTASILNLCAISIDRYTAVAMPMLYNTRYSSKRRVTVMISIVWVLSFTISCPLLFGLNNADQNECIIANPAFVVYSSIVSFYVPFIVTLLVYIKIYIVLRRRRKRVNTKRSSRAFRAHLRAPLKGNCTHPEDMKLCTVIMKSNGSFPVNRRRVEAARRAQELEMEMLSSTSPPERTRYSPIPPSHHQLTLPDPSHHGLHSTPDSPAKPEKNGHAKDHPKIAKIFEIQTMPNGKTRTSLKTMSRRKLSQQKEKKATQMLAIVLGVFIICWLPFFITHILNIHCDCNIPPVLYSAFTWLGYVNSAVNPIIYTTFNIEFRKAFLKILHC
Chain of D(3) dopamine receptor (P35462 whole entry): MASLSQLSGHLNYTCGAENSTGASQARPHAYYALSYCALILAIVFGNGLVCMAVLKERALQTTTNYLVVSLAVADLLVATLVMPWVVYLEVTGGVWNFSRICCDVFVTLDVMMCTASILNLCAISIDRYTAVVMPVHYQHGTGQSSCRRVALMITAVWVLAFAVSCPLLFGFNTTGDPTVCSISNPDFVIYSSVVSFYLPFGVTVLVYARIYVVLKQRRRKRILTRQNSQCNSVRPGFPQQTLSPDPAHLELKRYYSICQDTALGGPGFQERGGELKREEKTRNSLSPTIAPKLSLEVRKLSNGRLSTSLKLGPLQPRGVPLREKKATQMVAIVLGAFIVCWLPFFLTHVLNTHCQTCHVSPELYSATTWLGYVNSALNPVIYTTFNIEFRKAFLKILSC
Chain of D(1B) dopamine receptor (P21918 whole entry): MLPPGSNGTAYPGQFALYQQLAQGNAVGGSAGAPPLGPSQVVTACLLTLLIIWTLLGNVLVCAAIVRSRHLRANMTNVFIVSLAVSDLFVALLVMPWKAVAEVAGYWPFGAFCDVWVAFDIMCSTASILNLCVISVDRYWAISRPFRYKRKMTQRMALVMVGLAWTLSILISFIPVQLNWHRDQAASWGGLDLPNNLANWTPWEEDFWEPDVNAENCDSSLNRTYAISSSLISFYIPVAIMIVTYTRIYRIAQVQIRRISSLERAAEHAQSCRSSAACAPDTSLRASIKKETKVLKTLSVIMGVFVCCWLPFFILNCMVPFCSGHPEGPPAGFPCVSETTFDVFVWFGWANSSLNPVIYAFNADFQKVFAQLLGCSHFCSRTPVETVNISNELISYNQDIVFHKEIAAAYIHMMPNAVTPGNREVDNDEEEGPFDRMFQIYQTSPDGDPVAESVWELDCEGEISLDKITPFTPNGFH
Description for D(1A) dopamine receptor: Binding affinity for human recombinant dopamine receptor D1
Description for D(3) dopamine receptor: Binding affinity for human recombinant dopamine receptor D3

As for `COc1ccc2c(c1)OCCN(C)CCc1ccccc1C2`, the Ki at D(2) dopamine receptor is 0.158 µM; on D(1B) dopamine receptor, 0.0018 µM; on D(4) dopamine receptor it was 0.546 µM; on D(1A) dopamine receptor, 0.0355 µM; on D(3) dopamine receptor it was 1.6 µM.

With `CN1CCOc2cc(O)ccc2Cc2ccccc2CC1`, the Ki at D(2) dopamine receptor worked out at 0.274 µM; at D(1B) dopamine receptor, 0.00057 µM; at D(4) dopamine receptor, 0.375 µM; on D(1A) dopamine receptor it was 0.0032 µM; on D(3) dopamine receptor it was 1.38 µM.

On to `c1ccc(Cc2ccccc2OCCCN2CCCC2)cc1`, for which the Ki at D(2) dopamine receptor came to 1.01 µM; at D(1B) dopamine receptor, 0.113 µM; on D(4) dopamine receptor, 1.26 µM; at D(1A) dopamine receptor it was 0.113 µM; on D(3) dopamine receptor, 2.92 µM.

With `c1ccc(Cc2ccccc2OCCN2CCOCC2)cc1`, the Ki on D(2) dopamine receptor is above 10 µM; at D(1B) dopamine receptor, 0.366 µM; at D(4) dopamine receptor, 6.48 µM; at D(1A) dopamine receptor, 0.201 µM; at D(3) dopamine receptor, above 10 µM.

Turning to `CC1CN(CCOc2ccccc2Cc2ccccc2)CCO1` (stereo not given), the Ki at D(2) dopamine receptor was above 10 µM; on D(4) dopamine receptor, above 10 µM; at D(1A) dopamine receptor it was 1.68 µM; on D(3) dopamine receptor, above 10 µM.

For `c1ccc(Cc2ccccc2OCCN2CCN(c3ccccc3)CC2)cc1`, the inhibition constant Ki was 4.19 µM at D(2) dopamine receptor; 0.62 µM at D(1B) dopamine receptor; above 10 µM at D(4) dopamine receptor; 1.48 µM on D(1A) dopamine receptor; 2.86 µM on D(3) dopamine receptor.

For the compound `c1ccc(Cc2ccccc2NCCN2CCCC2)cc1`, the Ki is above 10 µM at D(2) dopamine receptor, above 10 µM on D(4) dopamine receptor, above 10 µM at D(1A) dopamine receptor and 4.65 µM at D(3) dopamine receptor.

In the case of `c1ccc(Cc2ccccc2OCCN2CCCCC2)cc1`, the Ki at D(2) dopamine receptor was 1.02 µM; at D(1B) dopamine receptor it was 0.043 µM; at D(4) dopamine receptor, 4.48 µM; on D(1A) dopamine receptor, 0.0337 µM; on D(3) dopamine receptor, 7.8 µM.

Regarding `CN(C)CCOc1ccccc1Cc1ccccc1` [PHENYLTOLOXAMINE], the inhibitory constant (Ki) on D(2) dopamine receptor is 2.74 µM; on D(1B) dopamine receptor it was 0.414 µM; at D(4) dopamine receptor, 2.77 µM; on D(1A) dopamine receptor, 0.343 µM; on D(3) dopamine receptor, above 10 µM.

Turning to `O=C(c1ccccc1)c1ccccc1OCCN1CCCC1`, the Ki on D(2) dopamine receptor was 5.32 µM; on D(4) dopamine receptor it was above 10 µM; on D(1A) dopamine receptor, 1.65 µM; at D(3) dopamine receptor it was 2.41 µM.

On to `CCN(CC)CCOc1ccccc1Cc1ccccc1` [ETOLOXAMINE], for which the Ki at D(2) dopamine receptor is 2.02 µM; on D(4) dopamine receptor, above 10 µM; at D(1A) dopamine receptor it was 1.96 µM; on D(3) dopamine receptor, 4.67 µM.

In the case of `OC(c1ccccc1)c1ccccc1OCCN1CCCC1` (stereo not given), the Ki was 6.28 µM on D(2) dopamine receptor, above 10 µM at D(4) dopamine receptor, 2.62 µM on D(1A) dopamine receptor and above 10 µM on D(3) dopamine receptor.

Consider `c1ccc(Cc2ccccc2OCCN2CCCC2)cc1`, for which the Ki on D(2) dopamine receptor was above 10 µM; at D(1B) dopamine receptor, 0.951 µM; at D(4) dopamine receptor, 1.43 µM; on D(1A) dopamine receptor, 0.379 µM; on D(3) dopamine receptor, 1.82 µM.
